Results published in patent publication US20120077828A1, “CHEMICAL COMPOUNDS” (priority 2010, published 2012).

The compounds below were run against T1, PERK (Homo sapiens, UniProt Q9NZJ5) (assay: PKR-like Endoplasmic Reticulum Kinase (PERK) Assay (HTRF Format)). Conditions: average, in at least one set of experimental runs; read-out: average pIC50 value against PERK (converted).
T1 construct: GST-PERK (536-1116) cytoplasmic domain was purchased from Invitrogen; purchased Invitrogen PV5106
T1 sequence (Q9NZJ5 536-1116): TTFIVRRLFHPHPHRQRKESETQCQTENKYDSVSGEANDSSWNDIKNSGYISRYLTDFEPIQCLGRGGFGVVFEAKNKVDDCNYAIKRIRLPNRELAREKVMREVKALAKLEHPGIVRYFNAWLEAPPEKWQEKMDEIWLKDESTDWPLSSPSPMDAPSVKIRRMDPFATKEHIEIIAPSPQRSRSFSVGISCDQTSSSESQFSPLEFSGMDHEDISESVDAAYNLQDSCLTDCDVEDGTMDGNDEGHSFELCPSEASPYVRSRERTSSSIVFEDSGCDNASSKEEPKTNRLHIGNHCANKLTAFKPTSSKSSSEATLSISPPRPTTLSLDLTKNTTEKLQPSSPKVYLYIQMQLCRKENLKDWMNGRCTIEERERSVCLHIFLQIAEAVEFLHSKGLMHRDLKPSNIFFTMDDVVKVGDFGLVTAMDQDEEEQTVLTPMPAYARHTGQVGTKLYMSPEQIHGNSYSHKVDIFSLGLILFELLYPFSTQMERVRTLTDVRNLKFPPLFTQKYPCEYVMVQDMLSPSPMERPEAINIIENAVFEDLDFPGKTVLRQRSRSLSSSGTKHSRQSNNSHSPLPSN
Type: biochemical
Method: PKR-like Endoplasmic Reticulum Kinase (PERK) Assay (HTRF Format)
Source of substrate: elF2α: 6-His-Full-length human elF2α is purified from baculovirus expression in Sf9 insect cells. The elF2 protein is buffer exchanged by dialysis into PBS, chemically modified by NHS-LC-Biotin and then buffer exchanged by dialysis into 50 mm TRIS pH 7.2/250 mM NaCl/5 mM DTT. Protein is aliquoted and stored at −80° C.
Assays were performed by adding GST-PERK solution to assay plates containing compounds and pre-incubated for 30 minutes at room temperature. The reaction is initiated by the addition of ATP and EIF2α substrate solution. Quench solution is added following a one hour incubation at room temperature. The plates are covered for 2 hours at room temperature prior to determination of signal. The resulting signal is quantified on a Viewlux Reader (PerkinElmer). The APC Signal is normalized to the Europium signal by transforming the data through an APC/Eu calculation.
Compounds under analysis were dissolved in DMSO to 1.0 mM and serially diluted 1 to 3 with DMSO through eleven dilutions. 0.1 μl of each concentration was transferred to the corresponding well of an assay plate. This creates a final compound concentration range from 0.00017 to 10 μM.
The data for concentration response curves were plotted as % Inhibition calculated with the data reduction formula 100*(1−(U1−C2)/(C1−C2)) versus concentration of compound where U is the unknown value, C1 is the average control value obtained for 1% DMSO, and C2 is the average control value obtained for 0.1 M EDTA. Data were fitted with a curve described by:
where A is the minimum y, B is the maximum y concentration [M], D is the slope factor, and x is the log10 of the compound.
In the above data, pIC50 is defined as −log(IC50) where the IC50 value is expressed in molar units.

| SMILES | IC50 |
| --- | --- |
| Cc1cc(F)cc(CC(=O)N2CCc3cc(-c4nn(C)c5ncnc(N)c45)ccc32)c1 [Example 29, 3-{1-[(3-fluoro-5-methylphenyl)acetyl]-2,3-dihydro-1H-indol-5-yl}-1-methyl-1H-pyrazolo[3,4-d]pyrimidin-4-amine] | ≤ 0.316 nM |
| Cn1cc(-c2ccc3c(c2)CCN3C(=O)Cc2cccc(C(F)(F)F)n2)c2c(N)ncnc21 [Example 125, 7-methyl-5-(1-{[6-(trifluoromethyl)-2-pyridinyl]acetyl}-2,3-dihydro-1H-indol-5-yl)-7H-pyrrolo[2,3-d]pyrimidin-4-amine] | ≤ 1 nM |
| Cc1cccc(CC(=O)N2CCc3cc(-c4csc5ncnc(N)c45)ccc32)c1 [Example 64, 5-{1-[(3-methylphenyl)acetyl]-2,3-dihydro-1H-indol-5-yl}thieno[2,3-d]pyrimidin-4-amine] | ≤ 1 nM |
| Cn1cc(-c2ccc3c(c2)CCN3C(=O)Cc2ccc(F)cc2)c2c(N)ncnc21 [Example 93, 5-{1-[(4-fluorophenyl)acetyl]-2,3-dihydro-1H-indol-5-yl}-7-methyl-7H-pyrrolo[2,3-d]pyrimidin-4-amine] | ≤ 2.51 nM |
| Nc1ncc(Cl)c2occ(-c3ccc4c(c3)CCN4C(=O)Cc3cc(F)ccc3F)c12 [Example 131, 7-chloro-3-{1-[(2,5-difluorophenyl)acetyl]-2,3-dihydro-1H-indol-5-yl}furo[3,2-c]pyridin-4-amine] | ≤ 1 nM |
| Cc1cccc(CC(=O)N2CCc3cc(-c4nn(C(C)C)c5ncnc(N)c45)ccc32)c1 [Example 82, 1-(1-methylethyl)-3-{1-[(3-methylphenyl)acetyl]-2,3-dihydro-1H-indol-5-yl}-1H-pyrazolo[3,4-d]pyrimidin-4-amine] | ≤ 2.51 nM |
| Cn1cc(-c2ccc3c(c2)CCN3C(=O)Cc2cc(F)ccc2F)c2c(N)ncnc21 [Example 59, 5-{1-[(2,5-difluorophenyl)acetyl]-2,3-dihydro-1H-indol-5-yl}-7-methyl-7H-pyrrolo[2,3-d]pyrimidin-4-amine] | ≤ 1 nM |
| Cc1ccc(C)c(CC(=O)N2CCc3cc(-c4nn(C)c5ncnc(N)c45)ccc32)c1 [Example 28, 3-{1-[(2,5-dimethylphenyl)acetyl]-2,3-dihydro-1H-indol-5-yl}-1-methyl-1H-pyrazolo[3,4-d]pyrimidin-4-amine] | ≤ 0.316 nM |
| Cc1cccc(CC(=O)N2CCc3cc(-c4nn(C)c5ncnc(N)c45)ccc32)c1 [Example 18, 1-methyl-3-(1[(3-methylphenyl)acetyl]-2,3-dihydro-1H-indol-5-yl)-1H-pyrazolo[3,4-d]pyrimidin-4-amine] | ≤ 1 nM |
| Nc1ncc(-c2ccncc2)c2scc(-c3ccc4c(c3)CCN4C(=O)Cc3ccccc3)c12 [Example 9, 3-[1-(phenylacetyl)-2,3-dihydro-1H-indol-5-yl]-7-(4-pyridinyl)thieno[3,2-c]pyridin-4-amine] | ≤ 1 nM |
| Nc1ncnc2[nH]cc(-c3ccc4c(c3)CCN4C(=O)Cc3cccc(C(F)(F)F)c3)c12 [Example 148, 5-(1-{[3-(trifluoromethyl)phenyl]acetyl}-2,3-dihydro-1H-indol-5-yl)-1H-pyrrolo[2,3-d]pyrimidin-4-amine] | ≤ 0.316 nM |
| COc1cccc(CC(=O)N2CCc3cc(-c4csc5ccnc(N)c45)ccc32)c1 [Example 23, 3-(1-{[3-(methyloxy)phenyl]acetyl}-2,3-dihydro-1H-indol-5-yl)thieno[3,2-c]pyridin-4-amine] | ≤ 2.51 nM |
| Cn1cc(-c2ccc3c(c2F)CCN3C(=O)Cc2ccccc2)c2c(N)ncnc21 [Example 112, 5-[4-fluoro-1-(phenylacetyl)-2,3-dihydro-1H-indol-5-yl]-7-methyl-7H-pyrrolo[2,3-d]pyrimidin-4-amine] | ≤ 0.316 nM |
| Cc1cccc(CC(=O)N2CCc3cc(-c4nn(C)c5ncnc(N)c45)ccc32)c1F [Example 74, 3-{1-[(2-fluoro-3-methylphenyl)acetyl]-2,3-dihydro-1H-indol-5-yl}-1-methyl-1H-pyrazolo[3,4-d]pyrimidin-4-amine] | ≤ 1 nM |
| Cn1cc(-c2ccc3c(c2)CCN3C(=O)Cc2cc(Cl)ccc2F)c2c(N)ncnc21 [Example 100, 5-{1-[(5-chloro-2-fluorophenyl)acetyl]-2,3-dihydro-1H-indol-5-yl}-7-methyl-7H-pyrrolo[2,3-d]pyrimidin-4-amine] | ≤ 0.316 nM |
| Cn1cc(-c2ccc3c(c2)CCN3C(=O)Cc2ccccc2)c2c(N)ncnc21 [Example 4, 7-methyl-5-[1-(phenylacetyl)-2,3-dihydro-1H-indol-5-yl]-7H-pyrrolo[2,3-d]pyrimidin-4-amine] | ≤ 2.51 nM |
| Cc1cccc(CC(=O)N2CCc3cc(-c4cncc5[nH]nc(N)c45)ccc32)c1 [Example 130, 4-{1-[(3-methylphenyl)acetyl]-2,3-dihydro-1H-indol-5-yl}-1H-pyrazolo[3,4-c]pyridin-3-amine] | ≤ 0.316 nM |
| Cn1cc(-c2cnc(N)c3c(-c4ccc5c(c4)CCN5C(=O)Cc4ccccc4)csc23)cn1 [Example 14, 7-(1-methyl-1H-pyrazol-4-yl)-3-[1-(phenylacetyl)-2,3-dihydro-1H-indol-5-yl]thieno[3,2-c]pyridin-4-amine] | ≤ 2.51 nM |
| CN(C)CCn1cc(-c2ccc3c(c2)CCN3C(=O)Cc2cccc(C(F)(F)F)c2)c2c(N)ncnc21 [Example 134, 7-[2-(dimethylamino)ethyl]-5-(1-{[3-(trifluoromethyl)phenyl]acetyl}-2,3-dihydro-1H-indol-5-yl)-7H-pyrrolo[2,3-d]pyrimidin-4-amine] | ≤ 1 nM |
| Cc1cc(C)n(CC(=O)N2CCc3cc(-c4cn(C)c5ncnc(N)c45)ccc32)n1 [Example 111, 5-{1-[(3,5-dimethyl-1H-pyrazol-1-yl)acetyl]-2,3-dihydro-1H-indol-5-yl}-7-methyl-7H-pyrrolo[2,3-d]pyrimidin-4-amine] | ≤ 1 nM |
| Cc1cc(C)n(CC(=O)N2CCc3c2ccc(-c2cn(C)c4ncnc(N)c24)c3F)n1 [Example 138, 5-{1-[(3,5-dimethyl-1H-pyrazol-1-yl)acetyl]-4-fluoro-2,3-dihydro-1H-indol-5-yl}-7-methyl-7H-pyrrolo[2,3-d]pyrimidin-4-amine] | ≤ 2.51 nM |
| Cc1cccc(CC(=O)N2CCc3cc(-c4cn(C5CCNCC5)c5ncnc(N)c45)ccc32)c1 [Example 62, 5-{1-[(3-methylphenyl)acetyl]-2,3-dihydro-1H-indol-5-yl}-7-(4-piperidinyl)-7H-pyrrolo[2,3-d]pyrimidin-4-amine] | ≤ 1 nM |
| Cn1cc(-c2ccc3c(c2)CCN3C(=O)Cc2cc(F)cc(F)c2F)c2c(N)ncnc21 [Example 90, 7-methyl-5-{1-[(2,3,5-trifluorophenyl)acetyl]-2,3-dihydro-1H-indol-5-yl}-7H-pyrrolo[2,3-d]pyrimidin-4-amine] | ≤ 0.316 nM |
| NCCc1cnc(N)c2c(-c3ccc4c(c3F)CCN4C(=O)Cc3cc(F)ccc3F)coc12 [Example 146, 7-(2-aminoethyl)-3-{1-[(2,5-difluorophenyl)acetyl]-4-fluoro-2,3-dihydro-1H-indol-5-yl}furo[3,2-c]pyridin-4-amine] | ≤ 2.51 nM |
| Cn1nc(-c2ccc3c(c2)CCN3C(=O)Cc2cc(F)cc(F)c2F)c2c(N)ncnc21 [Example 55, 1-methyl-3-{1-[(2,3,5-trifluorophenyl)acetyl]-2,3-dihydro-1H-indol-5-yl}-1H-pyrazolo[3,4-d]pyrimidin-4-amine] | ≤ 2.51 nM |
| Cn1cc(-c2ccc3c(c2F)CCN3C(=O)Cc2ccc(F)cc2)c2c(N)ncnc21 [Example 141, 5-{4-fluoro-1-[(4-fluorophenyl)acetyl]-2,3-dihydro-1H-indol-5-yl}-7-methyl-7H-pyrrolo[2,3-d]pyrimidin-4-amine] | ≤ 0.316 nM |
| Cc1cc(C)cc(CC(=O)N2CCc3cc(-c4nn(C)c5ncnc(N)c45)ccc32)c1 [Example 30, 3-{1-[(3,5-dimethylphenyl)acetyl]-2,3-dihydro-1H-indol-5-yl}-1-methyl-1H-pyrazolo[3,4-d]pyrimidin-4-amine] | ≤ 1 nM |
| Cn1cc(-c2ccc3c(c2)CCN3C(=O)Cc2cccc(Cl)c2)c2c(N)ncnc21 [Example 46, 5-{1-[(3-chlorophenyl)acetyl]-2,3-dihydro-1H-indol-5-yl}-7-methyl-7H-pyrrolo[2,3-d]pyrimidin-4-amine] | ≤ 0.316 nM |
